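96-well plates; 48 h exposure; 5 concentrations. Endpoints by linear interpolation between flanking doses. Not reached: highest tested concentration assigned. GI50 is the concentration that inhibits growth by half. TGI is the concentration that stops growth completely.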
How the values were obtained:
Assay in all cases: NCI tumour cell line growth inhibition, 48 h
[1] = tested on: SNB-75 CNS
[2] = tested on: RPMI-8226 leukemia
[3] = tested on: NCI-H226 lung
[4] = tested on: LOX IMVI melanoma
[5] = tested on: UACC-257 melanoma
[6] = tested on: K-562 leukemia
[7] = tested on: DU-145 prostate
[8] = tested on: 786-0 renal
[9] = tested on: HCT-116 colon
[10] = tested on: A498 renal
[11] = tested on: HOP-62 NSCLC
[12] = tested on: A549 NSCLC
[13] = tested on: CAKI-1 renal
[14] = tested on: HOP-92 NSCLC
[15] = tested on: NCI-H23 lung
[16] = tested on: HT29 colon
[17] = tested on: SF-295 CNS
[18] = tested on: OVCAR-5 ovarian
[19] = tested on: M14 melanoma
[20] = tested on: T-47D breast
[21] = tested on: SK-MEL-5 melanoma
[22] = tested on: MCF7 breast
[23] = tested on: SK-MEL-28 melanoma
[24] = tested on: MDA-MB-435
[25] = tested on: EKVX NSCLC
[26] = tested on: HCC-2998 colon
[27] = tested on: SN12C renal
[28] = tested on: NCI-H522 lung
[29] = tested on: OVCAR-8 ovarian
[30] = tested on: OVCAR-3 ovarian
[31] = tested on: U251 CNS
[32] = tested on: RXF 393 renal
[33] = tested on: SNB-19 CNS
[34] = tested on: MDA-N
[35] = tested on: MDA-MB-231 breast
[36] = tested on: CCRF-CEM leukemia
[37] = tested on: MALME-3M melanoma
[38] = tested on: SW-620 colon
[39] = tested on: HS 578T breast
[40] = tested on: SK-MEL-2 melanoma
[41] = tested on: BT-549 breast
[42] = tested on: SR leukemia
[43] = tested on: HCT-15 colon
[44] = tested on: SK-OV-3 ovarian
[45] = tested on: MOLT-4 leukemia
[46] = tested on: COLO 205 colon
[47] = tested on: ACHN renal
[48] = tested on: NCI/ADR-RES ovarian
[49] = tested on: IGROV1 ovarian
[50] = tested on: HL-60(TB) leukemia
[51] = tested on: KM12 colon
[52] = tested on: UACC-62 melanoma
[53] = tested on: PC-3 prostate
[54] = tested on: OVCAR-4 ovarian
[55] = tested on: NCI-H460 lung
[56] = tested on: UO-31 renal
[57] = tested on: SF-268 CNS

## CC(=O)OCC1OC(O[C@@H]2C[C@H]3C(C)(C)[C@H](OC(C)=O)CC[C@]3(C)[C@H]3CCC4=C([C@@H](C)C[C@@H](O)[C@H](O)C(C)(C)O)CC[C@@]4(C)[C@@]32C)C(O)C(O)C1O (some centres not stated)
[1]
  GI50: 13.2 µM
  TGI: 26 µM
[2]
  GI50: 10.5 µM
  TGI: 30.1 µM
[3]
  GI50: 17.3 µM
  TGI: 32 µM
[4]
  GI50: 12.5 µM
  TGI: 25 µM
[5]
  GI50: 16.3 µM
  TGI: 30.3 µM
[6]
  GI50: 12.7 µM
  TGI: 32.5 µM
[7]
  GI50: 17.8 µM
  TGI: 31.8 µM
[8]
  GI50: 18.2 µM
  TGI: 32.7 µM
[9]
  GI50: 14.2 µM
  TGI: 27.2 µM
[10]
  GI50: 17.2 µM
  TGI: 31.1 µM
[11]
  GI50: 16.2 µM
  TGI: 30 µM
[12]
  GI50: 19 µM
  TGI: 33.3 µM
[13]
  GI50: 15.6 µM
  TGI: 28.9 µM
[14]
  GI50: 14.6 µM
  TGI: 27.9 µM
[15]
  GI50: 16.7 µM
  TGI: 30.4 µM
[16]
  GI50: 16.6 µM
  TGI: 30.2 µM
[17]
  GI50: 17.5 µM
  TGI: 31.6 µM
[18]
  GI50: 17.7 µM
  TGI: 31.6 µM
[19]
  GI50: 17.3 µM
  TGI: 31.4 µM
[20]
  GI50: 16.5 µM
  TGI: 30.3 µM
[21]
  GI50: 16.2 µM
  TGI: 29.7 µM
[22]
  GI50: 2890 nM
  TGI: 11.9 µM
[23]
  GI50: 17 µM
  TGI: 30.9 µM
[24]
  GI50: 16 µM
  TGI: 29.5 µM
[25]
  GI50: 16.9 µM
  TGI: 31 µM
[26]
  GI50: 12 µM
  TGI: 25.2 µM
[27]
  GI50: 16.4 µM
  TGI: 30 µM
[28]
  GI50: 13.2 µM
  TGI: 27.2 µM
[29]
  GI50: 15.9 µM
  TGI: 29.6 µM
[30]
  GI50: 14.4 µM
  TGI: 27.8 µM
[31]
  TGI: 28 µM
[32]
  GI50: 14.8 µM
  TGI: 28 µM
[33]
  GI50: 14.3 µM
  TGI: 27.7 µM
[34]
  GI50: 16.8 µM
  TGI: 30.5 µM
[35]
  GI50: 11.6 µM
  TGI: 23.8 µM
[36]
  GI50: 15.9 µM
  TGI: 34.1 µM
[37]
  GI50: 16.5 µM
  TGI: 30.4 µM
[38]
  GI50: 16.8 µM
  TGI: 30.7 µM
[39]
  GI50: 15.2 µM
  TGI: 32.8 µM
[40]
  GI50: 16.3 µM
  TGI: 30.3 µM
[41]
  GI50: 15.4 µM
  TGI: 28.7 µM
[42]
  GI50: 12.2 µM
  TGI: 27.8 µM
[43]
  GI50: 17.1 µM
  TGI: 30.8 µM
[44]
  GI50: 17.9 µM
  TGI: 32.1 µM
[45]
  GI50: 13.3 µM
  TGI: 35.3 µM
[46]
  GI50: 16 µM
  TGI: 30.2 µM
[47]
  GI50: 17.8 µM
  TGI: 31.9 µM
[48]
  GI50: 20.4 µM
  TGI: 43.5 µM
[49]
  GI50: 16.3 µM
  TGI: 30.1 µM
[50]
  GI50: 13 µM
  TGI: 28.8 µM
[51]
  GI50: 22.6 µM
  TGI: 37.1 µM
[52]
  GI50: 12.6 µM
  TGI: 25.1 µM
[53]
  GI50: 14.5 µM
  TGI: 27.9 µM
[54]
  GI50: 17 µM
  TGI: 31.1 µM
[55]
  GI50: 16 µM
  TGI: 29.8 µM
[56]
  GI50: 18.4 µM
  TGI: 32.7 µM
[57]
  TGI: 27.7 µM
